Publication PMC9032693, “Biological Evaluation of New Thienopyridinium and Thienopyrimidinium Derivatives as Human Choline Kinase Inhibitors” (Pharmaceutics, 2022)

Legend:
[1] = Solubility as observed in the enzyme inhibition assays; format: physicochemical; set-up: key to solubility (footnote b): -: The compound was not soluble; conditions: for solubility (footnote b): CK inhibition assay at 10 and 30 µM; for solubility (in words): IC50 could not be determined
HeLa = test: Antiproliferative activity, resazurin assay, 72 h; format: cell-based, human
Method: (§1) Human cervix carcinoma (HeLa), Non-small lung adenocarcinoma (A549), Colon adenocarcinoma (HT29), and human triple negative breast cancer (MDA-MB-231) were cultured in Dulbecco’s modified Eagle’s media (DMEM). B-acute lymphoblastic leukemia (RS4;11 and SEM), T-acute lymphoblastic leukemia (Jurkat), and human promyelocytic cells (HL-60), were cultured in RPMI-1640 medium. Both media were purchased from Gibco, Life Technologies (Milan, Italy) and supplemented with 10% Fetal Bovine Serum (FBS, Invitrogen, Milan, Italy,). Every six months, each cell line was checked for the presence of mycoplasma by RT-PCR.
(§2) Stock solutions (10 mM) of the different compounds were made in DMSO. Cancer cells were seeded in tissue-treated, flat bottom, 384-well plates (Corning) according to their optimal density, (A549 1000 cells/wells; MDA-MB-231, HeLa and HT-29 2000 cells/well and finally Jurkat, HL-60 SEM and RS4;11 20.000 cells/well) in 27 µL of complete medium per well.
(§3) The day after cell seeding and immediately before cell treatment, 10 mM stock solutions of the compounds were pre-diluted to a […] concentration in 250 µL of Hank’s in a 96-well plate (Corning). Subsequent 1:5 dilutions were carried out using a microlab STAR 96-CORE liquid handling system (Hamilton), a robotized liquid handling tool that was employed for all steps, from cell seeding to drug dilution and cell treatment to ensure high reproducibility while reducing time for large screening execution. This pre-dilution step was necessary to avoid DMSO-related cytotoxicity and compound precipitation in the cell culture medium. In every case, DMSO concentration never exceeded 0.1%.
(§4) Positive (Bortezomib 1 µM) and negative (0.1% DMSO) controls were included in all the screened plates to allow for monitoring the Z’ factor throughout the entire screening. Cells were treated with 3 µL of the previously made dilutions; thus, generating a 6-point 5-fold dose–response curve starting from 10 µM. Within a plate, each drug concentration was tested in duplicate in two independent experiments for each compound.
(§5) Treated cells were then placed inside the CO2 incubator for 72 h at 37 °C. Cell viability was assessed by resazurin assay, in which 3 µL of resazurin per well were added using the previously described automated platform. Plates were placed in the incubator at 37 °C for 2 h, and then the fluorescence of each plate was read using a Spark 10 M multimode microplate reader (Tecan Group Ltd., Mannedorf, Switzerland) with 535 nm excitation wavelength and 600 nm emission wavelength.

HL-60 = test: Antiproliferative activity, resazurin assay, 72 h; format: cell-based, human
Method: as §1, §2, §3, §4, §5

Jurkat = test: Antiproliferative activity, resazurin assay, 72 h; format: cell-based, human
Method: as §1, §2, §3, §4, §5

A549 = test: Antiproliferative activity, resazurin assay, 72 h; format: cell-based, human
Method: as §1, §2, §3, §4, §5

MDA-MB-231 = test: Antiproliferative activity, resazurin assay, 72 h; format: cell-based, human
Method: as §1, §2, §3, §4, §5

RS 4;11 = test: Antiproliferative activity, resazurin assay, 72 h; format: cell-based, human
Method: as §1, §2, §3, §4, §5

HT29 = test: Antiproliferative activity, resazurin assay, 72 h; format: cell-based, human
Method: as §1, §2, §3, §4, §5

SEM cells = test: Antiproliferative activity, resazurin assay, 72 h; format: cell-based, human
Method: as §1, §2, §3, §4, §5

CKα1 = biological target: T1, CKα1 (Homo sapiens, UniProt P35790); test: Choline kinase assay ([methyl-14C]choline into PCho, purified enzyme); format: biochemical; conditions: for IC50: concentration required to inhibit CKα1 enzyme by 50%; for % Inhibition at 10 µM: purified CKα1, inhibitor 10 µM; for % Inhibition at 10 µM / % Inhibition at 30 µM: end-point assay; for % Inhibition at 30 µM: purified CKα1, inhibitor 30 µM
T1 construct: an N-terminally His-tagged truncated form of CKα1 (Δ75–457) was cloned into a pET-28a vector; His tag (N); made in house; host or cells: E. coli BL21 (DE3) Star
T1 sequence (P35790 75-457): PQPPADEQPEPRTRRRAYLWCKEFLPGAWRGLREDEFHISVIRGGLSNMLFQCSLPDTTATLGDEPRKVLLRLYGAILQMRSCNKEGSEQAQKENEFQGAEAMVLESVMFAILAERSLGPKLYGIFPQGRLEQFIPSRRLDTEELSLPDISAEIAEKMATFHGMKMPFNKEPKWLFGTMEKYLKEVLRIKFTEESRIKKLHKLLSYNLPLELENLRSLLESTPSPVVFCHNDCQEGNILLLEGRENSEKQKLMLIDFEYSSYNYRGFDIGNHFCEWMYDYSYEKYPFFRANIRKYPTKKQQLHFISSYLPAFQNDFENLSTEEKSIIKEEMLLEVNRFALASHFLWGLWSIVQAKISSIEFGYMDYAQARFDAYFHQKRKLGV
Method: The protein was produced and purified as previously described. Briefly, an N-terminally His-tagged truncated form of CKα1 (Δ75–457) was cloned into a pET-28a vector and expressed at 37 °C in E. coli BL21 (DE3) Star cells using 1 mM isopropyl β-D-1-thiogalactopyranoside (IPTG). After centrifugation, the cellular pellet was resuspended in 50 mM Tris-HCl pH 7.5, 500 mM NaCl, 0.2 mM phenylmethylsulphonyl fluoride (PMSF), DNase, and 0.5 mM β-mercaptoethanol, sonicated and subjected to a two-step purification procedure to isolate the target enzyme. […] Protein elution was completed using buffer A + 400 mM imidazole. A second size-exclusion chromatography step was then carried out to achieve complete purity. To this end, we used a HiPrep 26/60 Sephacryl 100 HR column (GE Healthcare, Little Chalfont, Buckinghamshire, UK) and a 20 mM Tris/HCl pH 7.5, 150 mM NaCl running buffer.
To study the effect of the compounds on CKα, an in vitro enzymatic assay was performed using the purified enzyme as previously reported in [19, 28, 29]. Briefly, the incorporation of ^14C from [methyl-^14C]choline into PCho in either the absence (control) or presence of different inhibitors at varying concentrations was used to determine the CK activity. The reaction mixture included 20 ng of purified CKα1, 10 mM ATP, 10 mM MgCl2, 100 mM Tris-HCl pH 8.5, and increasing concentrations of compounds. The mixture was preincubated at 37 °C for 5 min. Then, [methyl-^14C]choline chloride (1 mM, 4500 dpm/nmol) was added and the reaction was left to proceed for 10 min at 37 °C. The assay was stopped by immersing the reaction tubes in boiling water. PCho was separated by Thin Layer Chromatography using methanol/0.6% NaCl/28% NH4OH in water (50:50:5, v/v/v) as solvent. The radioactivity associated into PCho was determined in a Beckman 6000-TA (Madrid, Spain) liquid scintillation counter. The 50% inhibitory concentrations (IC50 values) were determined from the % enzyme activity at different concentrations of synthetic inhibitors relative to the control by using a sigmoidal dose–response curve (ED50plus v1.0 software).

solubility (footnote b) [1]	solubility (in words) [1]	GI50 (HeLa)	GI50 (HL-60)	GI50 (Jurkat)	GI50 (A549)	GI50 (MDA-MB-231)	GI50 (HT29)	IC50 (CKα1)	% Inhibition at 10 µM (CKα1)	% Inhibition at 30 µM (CKα1)	IC50 (CKα1; listed as Fa-34)	Structure (SMILES)	GI50 (RS 4;11)	GI50 (SEM cells)
- ^b	insolubility	1170 ± 100 nM	510 ± 50 nM	6150 ± 600 nM	600 ± 60 nM	1130 ± 200 nM	1560 ± 200 nM					[Br-].[Br-].c1cc2c(s1)c(N1CCCCCC1)nc[n+]2Cc1ccc(CCc2ccc(C[n+]3cnc(N4CCCCCC4)c4sccc43)cc2)cc1 [Fa-23]	2080 ± 30 nM	2170 ± 20 nM
- ^b	insolubility	620 ± 20 nM	140 ± 10 nM	5480 ± 500 nM	280 ± 20 nM	330 ± 20 nM	1470 ± 60 nM					[Br-].[Br-].c1cc2c(s1)c(N1CCCCC1)nc[n+]2Cc1ccc(CCc2ccc(C[n+]3cnc(N4CCCCC4)c4sccc43)cc2)cc1 [Fa-25]	1840 ± 100 nM	2530 ± 30 nM
		870 ± 50 nM	400 ± 50 nM	8610 ± 1300 nM	210 ± 30 nM	470 ± 40 nM	1480 ± 40 nM	8570 ± 2800 nM	89.95%	95.88%		[Br-].[Br-].c1cc2c(s1)c(N1CCCC1)nc[n+]2Cc1ccc(CCCCc2ccc(C[n+]3cnc(N4CCCC4)c4sccc43)cc2)cc1 [Ff-7]	2330 ± 300 nM	2930 ± 200 nM
		910 ± 90 nM	550 ± 20 nM	> 10000 nM	290 ± 300 nM	320 ± 50 nM	1890 ± 200 nM		79.23%	92.88%		[Br-].[Br-].c1cc2c(s1)c(N1CCCC1)nc[n+]2Cc1ccc(OCCOc2ccc(C[n+]3cnc(N4CCCC4)c4sccc43)cc2)cc1 [Ff-8]	3470 ± 300 nM	> 10000 nM
		930 ± 10 nM	270 ± 10 nM	6100 ± 1100 nM	290 ± 30 nM	910 ± 80 nM	1630 ± 100 nM	700 ± 30 nM	94.31%	99.02%	704 nM	[Br-].[Br-].c1cc2c(s1)c(N1CCCCCC1)nc[n+]2Cc1ccc(OCCOc2ccc(C[n+]3cnc(N4CCCCCC4)c4sccc43)cc2)cc1 [Ff-34]	1800 ± 100 nM	2500 ± 100 nM
		2190 ± 300 nM	470 ± 30 nM	8530 ± 1100 nM	390 ± 40 nM	680 ± 70 nM	3650 ± 500 nM	2330 ± 200 nM	93.07%	94.25%		[Br-].[Br-].c1cc2c(s1)c(N1CCCC1)cc[n+]2Cc1ccc(CCc2ccc(C[n+]3ccc(N4CCCC4)c4sccc43)cc2)cc1 [Fg-11]	5720 ± 500 nM	> 10000 nM
		1000 ± 100 nM	130 ± 10 nM	> 10000 nM	220 ± 30 nM	260 ± 20 nM	2010 ± 30 nM	≥ 5000 nM	71.11%	81.29%		[Br-].[Br-].c1cc2c(N3CCCC3)nc[n+](Cc3ccc(CCc4ccc(C[n+]5cnc(N6CCCC6)c6ccsc65)cc4)cc3)c2s1 [Fg-15]	3710 ± 40 nM	> 10000 nM
		670 ± 20 nM	210 ± 30 nM	> 10000 nM	250 ± 20 nM	380 ± 10 nM	2640 ± 60 nM	1810 ± 170 nM	80.28%	85.87%		[Br-].[Br-].c1cc2c(s1)c(N1CCCC1)nc[n+]2Cc1ccc(CCc2ccc(C[n+]3cnc(N4CCCC4)c4sccc43)cc2)cc1 [Fg-16]	7270 ± 800 nM	> 10000 nM
		1400 ± 20 nM	760 ± 50 nM	> 10000 nM	1170 ± 10 nM	1090 ± 100 nM	4500 ± 400 nM	≥ 10000 nM	51.54%	74.39%		[Br-].[Br-].c1cc2c(N3CCCCC3)nc[n+](Cc3ccc(CCc4ccc(C[n+]5cnc(N6CCCCC6)c6ccsc65)cc4)cc3)c2s1 [Fg-31]	7200 ± 1000 nM	> 10000 nM

Structure (SMILES)	solubility (footnote b) [1]	solubility (in words) [1]	GI50 (HeLa)	GI50 (HL-60)	GI50 (Jurkat)	GI50 (A549)	GI50 (MDA-MB-231)	GI50 (HT29)	IC50 (CKα1)	% Inhibition at 10 µM (CKα1)	% Inhibition at 30 µM (CKα1)	IC50 (CKα1; listed as Fa-34)	GI50 (RS 4;11)	GI50 (SEM cells)
[Br-].[Br-].c1cc2c(N3CCCCCC3)nc[n+](Cc3ccc(CCCCc4ccc(C[n+]5cnc(N6CCCCCC6)c6ccsc65)cc4)cc3)c2s1 [Ff-35, ((1,1′-((butane-1,4-diylbis(4,1-phenylene))bis(methylene))bis(4-(azepan-1-yl)thieno[2,3-d]pyrimidin-1-ium)) bromide]			300 ± 10 nM	150 ± 10 nM	1540 ± 20 nM	140 ± 20 nM	97 ± 1 nM	780 ± 30 nM	460 ± 80 nM				950 ± 50 nM	760 ± 30 nM
[Br-].[Br-].c1cc2c(s1)c(N1CCCC1)cc[n+]2Cc1ccc(-c2ccc(C[n+]3ccc(N4CCCC4)c4sccc43)cc2)cc1 [Fg-9]			> 10000 nM	9120 ± 1100 nM	> 10000 nM	250 ± 20 nM	2020 ± 200 nM	> 10000 nM	≥ 5000 nM	75.81%	94.95%		> 10000 nM	> 10000 nM
[Br-].[Br-].c1cc2c(s1)c(N1CCCCCC1)cc[n+]2Cc1ccc(-c2ccc(C[n+]3ccc(N4CCCCCC4)c4sccc43)cc2)cc1 [Fg-10]			1590 ± 100 nM	440 ± 50 nM	6330 ± 600 nM	310 ± 10 nM	1460 ± 200 nM	1760 ± 200 nM	≥ 10000 nM	80.76%	96.98%		2770 ± 900 nM	3510 ± 800 nM
[Br-].[Br-].c1cc2c(N3CCCC3)nc[n+](Cc3ccc(-c4ccc(C[n+]5cnc(N6CCCC6)c6ccsc65)cc4)cc3)c2s1 [Fg-14]			2530 ± 800 nM	1350 ± 100 nM	> 10000 nM	280 ± 20 nM	940 ± 90 nM	4160 ± 1000 nM	4870 ± 570 nM	80.28%	94.14%		> 10000 nM	> 10000 nM
CN(c1ccccc1)c1nc[n+](Cc2ccc(-c3ccc(C[n+]4cnc(N(C)c5ccccc5)c5sccc54)cc3)cc2)c2ccsc12 [Fp-1]			1660 ± 10 nM	510 ± 50 nM	> 10000 nM	210 ± 20 nM	900 ± 20 nM	1430 ± 30 nM	1060 ± 220 nM				2120 ± 200 nM	4550 ± 500 nM
